Reference: patent publication US9493401B2, “Glutamate derivatives for topical use as immunomodulatory active ingredient” (PIERRE FABRE DERMO-COSMETIQUE, priority 2012, dated 2016)
Read-outs that look alike come from different tables or passages of the source.

Tests used:
HaCaT keratinocytes = test: Secretion of IL8 by HaCaT keratinocytes stimulated with TNFα (anti-inflammatory activity); type: cell-based, human; settings: TNFα 10 ng/ml, 24 h; FIG. 4; in words
Method: The dosage of interleukin 8 is carried out from a sample taken from the supernatant according to the following method: • IL8 is evaluated by ELISA, Duoset IL8 (Ref. DY208E, R&D Systems).

human CD4+ lymphocytes = test: Secretion of cytokines by human CD4+ lymphocytes stimulated with SEB (immuno-regulatory activity); type: cell-based; settings: Lymphocyte, SEB 300 ng/ml, 24 h
NHEK keratinocytes = test: Gene expression of inflammatory markers of atopic dermatitis in stimulated NHEK keratinocytes (PCR-Array); type: cell-based, human; settings: 24 h, vs stimulated control
Method: The primary keratinocytes (NHEK, normal human epidermal keratinocytes) distributed in 24-well plates are preincubated for 1 hour with the active ingredients and then stimulated for 24 hours with a cocktail of 4 agonists giving the possibility of creating in vitro the physio-pathological environment of atopic dermatitis: 100 ng/ml IL4+100 ng/ml IL13+1 μg/ml Poly I:C+5 μg/ml Pam3CSK4: this model gives the possibility of inducing the inflammation mediated by the overexpressed Th2 cytokines in DA (IL4, IL13) and by the bacterial components (mimicked by Pam3CSK4, TLR-2 ligand) and viral components (mimicked by Poly I:C, TLR-3 ligand) of DA. Analysis of the gene expression of the markers of DA is conducted in a PCR-Array with 48 genes and repeated on 3 different donors of NHEK.
For the whole of the markers, the RQ (Relative Quantity) of less than 0.5, at 5 h or 24 h, indicates significant inhibition: • inhibition of the TSLP marker involved in the lymphocyte Th2 polarization and specific of AD; • inhibition of the inflammatory cytokines IL1A, IL8, CSF2, IFNB1, VEGF; • inhibition of the chemokines CCL, CXCL, involved in the recruitment, cutaneous infiltration, and activation of the inflammatory cells (leucocytes, lymphocytes, Th1 and Th2 lymphocytes, monocytes).

[1] = read-out: inhibition of the production of IL-2
[2] = read-out: inhibition of the production of IL-4
[3] = read-out: inhibition of the production of IL-17

`CCCCCCCCCCCCCCCCCCOC(=O)CC[C@H](N)C(=O)O` [Example 7, 5-(n-octadecyl)-L-glutamate or 2-amino-5-(octadecyloxy)-5-oxopentanoic acid] showed a melting point of 180.5 °C.

For `CCCCCCCCCCCCOC(=O)CC[C@H](N)C(=O)O` [Example 4, 5-(n-dodecyl)-L-glutamate or 2-amino-5-(dodecyloxy)-5-oxopentanoic acid], the melting point was 189.9 °C.

With `N[C@@H](CCC(=O)O)C(=O)O` [glutamic acid, reference compound] the “anti-inflammatory activity towards the production of IL-8” value (HaCaT keratinocytes) was “not again found”.

`CCCCCCCCCOC(=O)CC[C@H](N)C(=O)O` [Example 3, 5-(n-nonyl)-L-glutamate or 2-amino-5-(nonyloxy)-5-oxopentanoic acid] gave an inhibition at 300 µM (human CD4+ lymphocytes; [1]) of 63%, an inhibition at 300 µM (human CD4+ lymphocytes; [2]) of 70% and an inhibition at 300 µM (human CD4+ lymphocytes; [3]) of 54%. The “anti-inflammatory activity towards the production of IL-8” value (HaCaT keratinocytes) was “anti-inflammatory activity”.

In the case of `CCCCC(CC)COC(=O)CC[C@H](N)C(=O)O` (stereo partly drawn) [Example 12, 5-(2-ethylhexyl)-L-glutamate or 2-amino-5(2-ethylhexyloxy)-5-oxopentanoic acid], the melting point is reported as 157.9 °C, the “CCL2 (MCP-1) gene expression” value (NHEK keratinocytes; 100 μM) is reported as 0.48 RQ and the “CCL3 (MIP-1α) gene expression” value (NHEK keratinocytes; 100 μM) is reported as 0.51 RQ. For the same compound, the “CCL4 (MIP-1β) gene expression” value (NHEK keratinocytes; 100 μM) was 0.14 RQ, the “CCL5 (RANTES) gene expression” value (NHEK keratinocytes; 100 μM) was 0.42 RQ and the “CCL20 (MIP-3α) gene expression” value (NHEK keratinocytes; 100 μM) was 0.13 RQ. For the same compound, the “CSF2 (GMCSF) gene expression” value (NHEK keratinocytes; 100 μM) was 1.55 RQ, the “CXCL1 (GRO-α) gene expression” value (NHEK keratinocytes; 100 μM) was 0.33 RQ and the “CXCL2 (MIP-2α) gene expression” value (NHEK keratinocytes; 100 μM) was 0.06 RQ. The “CXCL9 (Gamma-interferon-induced monokine) gene expression” value (NHEK keratinocytes; 100 μM) was 0.20 RQ, the “CXCL10 (IP-10) gene expression” value (NHEK keratinocytes; 100 μM) was 0.18 RQ and the “CXCL11 (I-TAC) gene expression” value (NHEK keratinocytes; 100 μM) was 0.14 RQ. The “IFNB1 (Interferon beta 1) gene expression” value (NHEK keratinocytes; 100 μM) was 0.19 RQ, the “IL1A (Interleukin 1, alpha) gene expression” value (NHEK keratinocytes; 100 μM) was 0.53 RQ and the “IL8 (Interleukin 8) gene expression” value (NHEK keratinocytes; 100 μM) was 0.29 RQ. The “TSLP (Thymic stromal lymphopoietin) gene expression” value (NHEK keratinocytes; 100 μM) was 0.20 RQ, the “VEGFC (Vascular endothelial growth factor C) gene expression” value (NHEK keratinocytes; 100 μM) was 0.20 RQ and the “CCL3 (MIP-1α) gene expression” value (NHEK keratinocytes; 300 μM) was 0.06 RQ. The “CCL4 (MIP-1β) gene expression” value (NHEK keratinocytes; 300 μM) was 0.02 RQ, the “CCL5 (RANTES) gene expression” value (NHEK keratinocytes; 300 μM) was 0.20 RQ and the “CCL20 (MIP-3α) gene expression” value (NHEK keratinocytes; 300 μM) was 0.13 RQ. For the same compound, the “CSF2 (GMCSF) gene expression” value (NHEK keratinocytes; 300 μM) was 0.33 RQ, the “CXCL1 (GRO-α) gene expression” value (NHEK keratinocytes; 300 μM) was 0.36 RQ and the “CXCL2 (MIP-2α) gene expression” value (NHEK keratinocytes; 300 μM) was 0.32 RQ. For the same compound, the “CXCL9 (Gamma-interferon-induced monokine) gene expression” value (NHEK keratinocytes; 300 μM) was 0.29 RQ, the “CXCL10 (IP-10) gene expression” value (NHEK keratinocytes; 300 μM) was 0.06 RQ and the “CXCL11 (I-TAC) gene expression” value (NHEK keratinocytes; 300 μM) was 0.15 RQ. The “IFNB1 (Interferon beta 1) gene expression” value (NHEK keratinocytes; 300 μM) was 0.26 RQ, the “IL1A (Interleukin 1, alpha) gene expression” value (NHEK keratinocytes; 300 μM) was 0.53 RQ and the “IL8 (Interleukin 8) gene expression” value (NHEK keratinocytes; 300 μM) was 0.18 RQ. For the same compound, the “TSLP (Thymic stromal lymphopoietin) gene expression” value (NHEK keratinocytes; 300 μM) was 0.54 RQ, the “VEGFC (Vascular endothelial growth factor C) gene expression” value (NHEK keratinocytes; 300 μM) was 0.50 RQ and the inhibition at 300 µM (human CD4+ lymphocytes; read-out: inhibition of the production of IFNγ) was 77%. The inhibition at 300 µM (human CD4+ lymphocytes; read-out: inhibition of the production of IL1β) was 80%, the inhibition at 300 µM (human CD4+ lymphocytes; read-out: inhibition of the production of IL5) was 77% and the inhibition at 300 µM (human CD4+ lymphocytes; read-out: inhibition of the production of IL6) was 44%. The inhibition at 300 µM (human CD4+ lymphocytes; read-out: inhibition of the production of IL10) was 87%, the inhibition at 300 µM (human CD4+ lymphocytes; read-out: inhibition of the production of IL13) was 84% and the inhibition at 300 µM (human CD4+ lymphocytes; [1]) was 43%. For the same compound, the inhibition at 300 µM (human CD4+ lymphocytes; [2]) was 69%, the inhibition at 300 µM (human CD4+ lymphocytes; [3]) was 86% and the inhibition at 300 µM (human CD4+ lymphocytes; read-out: inhibition of the production of TNFα) was 18%.

`CC(C)CCCC(C)CCOC(=O)CC[C@H](N)C(=O)O` (stereo partly drawn) [Example 8, 5-(3,7-dimethyloctyl)-L-glutamate or 2-amino-5(3,7-dimethyloctyloxy)-5-oxo-pentanoic acid] gave a melting point of 150.8 °C and an inhibition at 300 µM (human CD4+ lymphocytes; [1]) of 29%.

In the case of `CCCCCCCCCCCCCCOC(=O)CC[C@H](N)C(=O)O` [Example 5, 5-(n-tetradecyl)-L-glutamate or 2-amino-5-oxo-5(tetradecyl)pentanoic acid], the melting point is reported as 184.8 °C.

With `CCCCCCCCCCCCCCCCOC(=O)CC[C@H](N)C(=O)O` [Example 6, 5-(n-hexadecyl)-L-glutamate or 2-amino-5-(hexadecyloxy)-5-oxopentanoic acid] the melting point was 179.3 °C.
